# Data taken from the NIST ThermoML archive (doi:10.1016/j.tca.2010.10.002).
# ± gives the expanded uncertainty stated by the source.
# Details: Liquid, DSC
compound,measurement,setting,value
CCCCCCCC/C=C\CCCCCCCC(=O)OCC [ethyl (Z)-9-octadeceneoate],vapor or sublimation pressure,514.61 K,5.333 ± 0.53 kPa
same,vapor or sublimation pressure,536.83 K,9.333 ± 0.94 kPa
CCCCCCCCCCCCCCCC(=O)OCC [ethyl hexadecanoate],vapor or sublimation pressure,502.27 K,5.333 ± 0.53 kPa
same,vapor or sublimation pressure,515.13 K,9.333 ± 0.93 kPa
CCCCC/C=C\C/C=C\CCCCCCCC(=O)OCC [ethyl linoleate],vapor or sublimation pressure,537.69 K,9.333 ± 0.93 kPa
CCCCCCCCCCCCCCCCCC(=O)OCC [ethyl octadecanoate],vapor or sublimation pressure,520.56 K,5.333 ± 0.53 kPa
CCCCCCCCCCCCCCCC(=O)OC [methyl hexadecanoate],vapor or sublimation pressure,486.57 K,4 ± 0.4 kPa
CCCCCCCCCCCCCC(=O)OC [methyl tetradecanoate],vapor or sublimation pressure,459.62 K,4 ± 0.4 kPa
